Assay results as given in ChEMBL document CHEMBL1201862, “PubChem BioAssay data set” (2004).
pIC50: −log10 of the molar value. The source made the active and inactive calls.

Legend:
[1] = inhibitors of firefly luciferase expression or activity, dose response, H4 neuroglioma cells, luminescence (AID 1990); format: functional, cell-based
[2] = luciferase reporter signal reduction – luminescence, H4-C neuroglioblastoma cells, dose response (AID 2458); format: functional, cell-based;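 further: H4 neuroglioblastoma cells stably carrying a luciferase reporter gene fusion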
cells = format: functional, cell-based
[3] = Luminescence Cell-Based Dose Response HTS to Identify Inhibitors of 5'UTR Stem-Loop Driven Prion Protein mRNA Translation in H4 Neuroglioblastoma Cells. [Related pubchem assays: 1827 (Project Summary), 1813 (Primary HTS)]; format: functional
[4] = inhibitors of SNCA 5'UTR-driven reporter translation, confirmation, H4 neuroglioma cells, luminescence (AID 1988); format: functional, cell-based
[5] = inhibitors of intracellular T. cruzi replication, confirmation, NIH3T3 host cells, beta-gal luminescence (AID 2044); format: functional, cell-based;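 further: intracellular parasites grown in NIH/3T3 mouse fibroblasts as host cells; luminescent beta-galactosidase reporter signal from transgenic T. cruzi replicating inside host cells; inhibitors lower the luminescence signal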
[6] = cytotoxicity toward NIH3T3 fibroblasts, dose response, counter-screen, cell-based, ATP luminescence, mouse fibroblasts (AID 2010); format: functional;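 further: cells exposed to compound for about 90 hours before reading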
[7] = inhibitors of SNCA 5'UTR-driven translation, confirmation, luminescence, H4 neuroglioblastoma cells, dose confirmation (AID 2454); format: functional, cell-based;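 further: H4 neuroglioblastoma cells carrying an alpha-synuclein 5'UTR luciferase reporter; potency for inhibition of the luciferase signal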
Paired box protein Pax-8 = Paired box protein Pax-8 (Homo sapiens, UniProt Q06710); assay: inhibitors of PAX8-driven TPO luciferase reporter, dose response, RMG-I cells, cherry-pick (AID 687027); format: functional, cell-based;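 further: luciferase reporter driven by Pax8 target thyroperoxidase promoter measured by SteadyGlo luminescence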
[8] = target: T1, Delta-type opioid receptor (Homo sapiens, UniProt P41143); assay: HTS Image-Based Screen for Antagonists of the DOR Receptor. [Related pubchem assays (depositor defined):AID1777, AID1785, AID1786, AID2133]; format: functional
Mu-type opioid receptor = Mu-type opioid receptor (Homo sapiens, UniProt P35372); assay: HTS Image-Based Screen for Agonists of the MOR Receptor. [Related pubchem assays (depositor defined):AID1777, AID1785, AID1786, AID2133]; format: functional;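 further: imaging of beta-arrestin GFP recruitment into spots after receptor activation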
[9] = target: Peroxisome proliferator-activated receptor gamma/Nuclear receptor coactivator 1 (Homo sapiens, UniProt P37231); assay: TR-FRET dose response biochemical High Throughput Screening assay for agonists of the steroid receptor coactivator 1 (SRC-1) recruitment by the peroxisome proliferator-activated receptor gamma (PPAR gamma): non-selective agonists. [Related pubchem assays (depositor defined):AID1300, AID1808, AID504735, AID631]; format: protein assay
[10] = target: T1, Delta-type opioid receptor; assay: HTS Image-Based Screen for Agonists of the DOR Receptor. [Related pubchem assays (depositor defined):AID1777, AID1786, AID2133]; format: functional
[11] = target: Peroxisome proliferator-activated receptor gamma/Nuclear receptor coactivator 3 (Homo sapiens, UniProt P37231); assay: TR-FRET dose response biochemical High Throughput Screening assay for agonists of the steroid receptor coactivator 3 (SRC-3) recruitment by the peroxisome proliferator-activated receptor gamma (PPAR gamma): non-selective agonists. [Related pubchem assays: 1301 (Confirmation screen.), 1048 (Primary screen.)]; format: functional
[12] = target: G-protein coupled receptor 55 (Homo sapiens, UniProt Q9Y2T6); assay: GPR55 antagonists blocking LPI-driven arrestin recruitment, primary screen, imaging, U2OS, beta-arrestin-GFP, LPI agonist (AID 2013); format: functional;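 further: antagonist potency measured as reduced agonist-driven arrestin aggregation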
[13] = microbe, parasite or virus in culture; format: functional; details: Mycobacterium tuberculosis
[14] = target: T2, Kappa-type opioid receptor (Homo sapiens, UniProt P41145); format: functional
[15] = target: Peroxisome proliferator-activated receptor gamma/Nuclear receptor coactivator 2 (Homo sapiens, UniProt P37231); assay: TR-FRET dose response biochemical High Throughput Screening assay for agonists of the steroid receptor coactivator 2 (SRC-2) recruitment by the peroxisome proliferator-activated receptor gamma (PPAR gamma): non-selective agonists. [Related pubchem assays: 1297, 1032 ]; format: functional
Beta-galactosidase = Beta-galactosidase (Escherichia coli, UniProt Q8VNN2); format: functional
[16] = target: Sphingosine 1-phosphate receptor 4 (Homo sapiens, UniProt O95977); assay: Fluorescence dose response cell-based high throughput screening assay for antagonists of the Sphingosine 1-Phosphate Receptor 4 (S1P4). [Related pubchem assays: 1524 (Confirmation in triplicates.), 1510 (Primary screen.)]; format: functional
[17] = target: T2, Kappa-type opioid receptor; format: functional; remark: listed apart in the source
[18] = target: Sphingosine 1-phosphate receptor 1 (Homo sapiens, UniProt P21453); format: functional;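 further: Tango beta-arrestin reporter U2OS cells stimulated with S1P near its EC80; inhibitor potency meaning antagonism of receptor activation by the natural agonist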
[19] = target: T3, Replicative DNA helicase DnaB (Mycobacterium tuberculosis, UniProt P9WMR3); assay: DnaB intein splicing inhibitors, dose response, biochemical, cell-free fluorescence (AID 449749); format: functional
T3 sequence (P9WMR3 whole entry): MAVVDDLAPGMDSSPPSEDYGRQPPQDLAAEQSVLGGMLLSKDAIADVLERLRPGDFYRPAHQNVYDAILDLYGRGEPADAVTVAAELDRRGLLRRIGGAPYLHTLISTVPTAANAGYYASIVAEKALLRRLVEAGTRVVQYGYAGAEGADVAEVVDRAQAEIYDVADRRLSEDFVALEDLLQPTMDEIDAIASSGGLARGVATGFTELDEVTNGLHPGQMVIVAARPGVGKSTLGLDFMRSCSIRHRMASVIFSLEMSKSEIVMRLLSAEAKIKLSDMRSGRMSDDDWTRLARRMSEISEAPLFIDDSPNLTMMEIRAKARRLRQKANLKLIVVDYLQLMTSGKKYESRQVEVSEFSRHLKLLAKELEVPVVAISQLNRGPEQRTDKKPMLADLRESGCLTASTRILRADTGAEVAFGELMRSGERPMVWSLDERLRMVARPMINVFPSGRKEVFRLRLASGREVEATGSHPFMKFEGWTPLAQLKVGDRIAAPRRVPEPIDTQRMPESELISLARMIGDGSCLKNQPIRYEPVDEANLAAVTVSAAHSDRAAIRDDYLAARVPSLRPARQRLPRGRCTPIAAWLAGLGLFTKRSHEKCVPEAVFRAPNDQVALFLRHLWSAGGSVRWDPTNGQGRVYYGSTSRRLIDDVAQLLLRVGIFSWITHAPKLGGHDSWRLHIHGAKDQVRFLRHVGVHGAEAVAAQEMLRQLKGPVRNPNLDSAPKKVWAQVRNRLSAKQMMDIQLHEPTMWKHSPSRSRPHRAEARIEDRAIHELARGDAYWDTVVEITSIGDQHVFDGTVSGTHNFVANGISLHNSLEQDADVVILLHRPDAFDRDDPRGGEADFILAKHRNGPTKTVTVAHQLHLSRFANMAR

Protein RecA = target: T4, Protein RecA (Mycobacterium tuberculosis, UniProt P9WHJ3); assay: Fluorescence Cell-Free Homogeneous Dose Retest to Identify Inhibitors of RecA-Intein Splicing Activity. [Related pubchem assays (depositor defined):AID2097, AID2223, AID489010, AID492950]; format: functional
T4 sequence (P9WHJ3 whole entry): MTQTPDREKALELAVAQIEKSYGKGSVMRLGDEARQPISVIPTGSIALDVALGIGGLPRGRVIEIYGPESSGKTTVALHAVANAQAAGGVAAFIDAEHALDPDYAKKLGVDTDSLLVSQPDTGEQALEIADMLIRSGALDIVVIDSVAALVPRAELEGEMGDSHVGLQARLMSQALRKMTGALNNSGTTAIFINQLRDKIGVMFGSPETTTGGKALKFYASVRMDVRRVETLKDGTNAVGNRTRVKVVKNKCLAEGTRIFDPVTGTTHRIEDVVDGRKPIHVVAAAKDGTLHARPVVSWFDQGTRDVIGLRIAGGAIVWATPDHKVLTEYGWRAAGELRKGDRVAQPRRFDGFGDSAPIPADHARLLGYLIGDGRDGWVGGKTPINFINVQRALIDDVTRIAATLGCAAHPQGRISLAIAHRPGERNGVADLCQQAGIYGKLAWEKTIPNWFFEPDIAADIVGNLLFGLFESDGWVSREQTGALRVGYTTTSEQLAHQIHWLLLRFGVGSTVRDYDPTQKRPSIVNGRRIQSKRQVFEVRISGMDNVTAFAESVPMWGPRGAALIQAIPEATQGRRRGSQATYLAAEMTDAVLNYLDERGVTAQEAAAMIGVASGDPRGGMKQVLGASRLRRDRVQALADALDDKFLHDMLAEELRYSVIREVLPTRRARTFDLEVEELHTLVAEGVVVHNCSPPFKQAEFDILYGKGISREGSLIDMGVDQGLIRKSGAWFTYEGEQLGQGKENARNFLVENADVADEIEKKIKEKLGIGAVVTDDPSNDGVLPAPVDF

INS1 = assay: beta cell apoptosis inhibitors, cytokine rescue, dose response, luminescence, retest (AID 449756); format: functional, cell-based; details: Rattus norvegicus;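 further: cell death triggered by IL-1 beta plus TNF-alpha plus IFN-gamma mixture; protective hits raise ATP signal compared with cytokine alone wells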
[20] = Vero cell cytotoxicity, dose response, cytotoxicity control for Vif-APOBEC3G degradation inhibitor project, Vero cells (AID 1117358); format: functional; details: Human immunodeficiency virus 1, Vero
NADPH oxidase 1 = NADPH oxidase 1 (Homo sapiens, UniProt Q9Y5S8); assay: Luminescence-based cell-based dose response assay to identify inhibitors of NADPH oxidase 1 (NOX1).; format: functional
[21] = target: Sphingosine 1-phosphate receptor 2 (Homo sapiens, UniProt O95136); assay: Dose Response Cell Based Assay for Agonists of the S1P2 Receptor of Purchased Analogues. [Related pubchem assays: 729, 843, 854, 736 ]; format: functional
[22] = cytotoxicity in HPDE-C7 cells, cell-based, fluorescence, HTS (AID 430); format: functional; details: Homo sapiens
[23] = cytotoxicity in KRAS-transformed pancreatic duct cells, primary screen, cell-based, fluorescence, HTS (AID 431); format: functional; details: Homo sapiens;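 further: cell line used: HPDE-C7K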
HEK293 = assay: Fluorescence-based counterscreen for potentiators or agonists of NPY-Y2: cell-based high-throughput dose response assay to identify inhibitors of cyclic nucleotide gated ion channel (CNGC) activity. In this assay, the parental HEK293 cell line transfected with a cyclic-nucleotide gated ion channel (CNGC)-based cAMP sensor is used to measure inhibition of isoproterenol-induced CNGC activity by test compound.; format: functional; details: Homo sapiens;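 further: stimulus is 1 µM isoproterenol at EC100 plus PDE inhibitor Ro 20-1724 at 25 µM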
[24] = target: Neuropeptide Y receptor type 2 (Homo sapiens, UniProt P49146); assay: Fluorescence-based cell-based high-throughput dose response assay for agonists of NPY-Y2. [Related pubchem assays: 1703 (Screening assay (CNGC inhibitors).), 1359 (Screening assay (NPY-Y2 potentiators or agonists).), 1304 (Screening assay (NPY-Y1 potentiators or agonists).), 1710 (Screening assay (NPY-Y2 agonists).), 1791 (Summary AID.)]; format: functional
[25] = target: Neuropeptide Y receptor type 1 (Homo sapiens, UniProt P25929); assay: Fluorescence-based counterscreen for agonists of NPY-Y2: cell-based high-throughput dose response assay for agonists of NPY-Y1.; format: functional
[26] = target: Eukaryotic translation initiation factor 4E (Mus musculus, UniProt P63073); assay: eIF4E–eIF4G protein interaction inhibitors, dose response, biochemical, TR-FRET (AID 855); format: functional;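 further: potency for disrupting eIF4E binding to eIF4GI seen as loss of FRET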
[27] = inhibitors of HIV Env-driven cell fusion, dose response, cherry-pick (AID 652057); format: functional, cell-based
[28] = off-target signal loss in HeLa-CEM21 co-culture – HeLa F-luc CTL cells, cherry-picked, counter-screen for HIV-1 Env fusion inhibitor project, dose response (AID 652040); format: functional, cell-based;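 further: potency for signal decrease marking cytotoxic or nonspecific inhibition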
[29] = inhibitors of clade B AD8 Env fusion, dose response, cell-based, cherry-pick (AID 652062); format: functional;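 further: luciferase signal from cell-cell fusion driven by HIV-1 clade B AD8 Env; potency is for inhibitors of fusion seen as a drop in luminescence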

T2 sequence (P41145 whole entry): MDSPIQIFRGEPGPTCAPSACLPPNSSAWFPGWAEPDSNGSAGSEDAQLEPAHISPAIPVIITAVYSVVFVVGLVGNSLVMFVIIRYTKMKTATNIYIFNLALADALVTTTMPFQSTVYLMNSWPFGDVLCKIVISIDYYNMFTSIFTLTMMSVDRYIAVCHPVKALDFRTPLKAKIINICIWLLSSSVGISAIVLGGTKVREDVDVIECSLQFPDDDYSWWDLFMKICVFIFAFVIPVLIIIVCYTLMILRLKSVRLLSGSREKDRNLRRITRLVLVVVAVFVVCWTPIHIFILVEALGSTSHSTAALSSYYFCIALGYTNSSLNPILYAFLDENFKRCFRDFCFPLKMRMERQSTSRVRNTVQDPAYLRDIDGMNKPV
T1 sequence (P41143 whole entry): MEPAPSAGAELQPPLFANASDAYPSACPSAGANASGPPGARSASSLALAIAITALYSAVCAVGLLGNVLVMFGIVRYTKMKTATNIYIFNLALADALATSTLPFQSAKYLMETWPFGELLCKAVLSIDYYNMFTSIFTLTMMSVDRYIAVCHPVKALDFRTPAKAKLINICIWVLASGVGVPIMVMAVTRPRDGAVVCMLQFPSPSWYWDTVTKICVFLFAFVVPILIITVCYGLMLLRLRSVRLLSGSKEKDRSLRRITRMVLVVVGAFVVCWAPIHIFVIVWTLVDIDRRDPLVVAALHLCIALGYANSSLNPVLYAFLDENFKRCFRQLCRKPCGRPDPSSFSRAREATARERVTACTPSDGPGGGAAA
Sequence of Peroxisome proliferator-activated receptor gamma/Nuclear receptor coactivator 3 (P37231 whole entry): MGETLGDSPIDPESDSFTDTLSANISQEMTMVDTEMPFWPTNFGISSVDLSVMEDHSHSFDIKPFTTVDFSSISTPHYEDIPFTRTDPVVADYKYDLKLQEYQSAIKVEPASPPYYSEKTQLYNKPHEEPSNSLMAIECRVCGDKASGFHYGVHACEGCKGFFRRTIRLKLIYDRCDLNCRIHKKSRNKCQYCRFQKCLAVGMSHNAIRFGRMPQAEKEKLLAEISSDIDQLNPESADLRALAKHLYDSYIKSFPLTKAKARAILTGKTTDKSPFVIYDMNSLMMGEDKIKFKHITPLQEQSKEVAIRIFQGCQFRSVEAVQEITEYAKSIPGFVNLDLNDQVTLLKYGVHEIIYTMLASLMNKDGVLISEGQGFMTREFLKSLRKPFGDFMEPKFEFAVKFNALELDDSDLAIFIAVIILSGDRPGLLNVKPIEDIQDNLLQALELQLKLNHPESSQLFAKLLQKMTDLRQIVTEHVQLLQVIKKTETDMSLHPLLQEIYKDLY
Sequence of Peroxisome proliferator-activated receptor gamma/Nuclear receptor coactivator 3 (Q9Y6Q9 whole entry, further chain): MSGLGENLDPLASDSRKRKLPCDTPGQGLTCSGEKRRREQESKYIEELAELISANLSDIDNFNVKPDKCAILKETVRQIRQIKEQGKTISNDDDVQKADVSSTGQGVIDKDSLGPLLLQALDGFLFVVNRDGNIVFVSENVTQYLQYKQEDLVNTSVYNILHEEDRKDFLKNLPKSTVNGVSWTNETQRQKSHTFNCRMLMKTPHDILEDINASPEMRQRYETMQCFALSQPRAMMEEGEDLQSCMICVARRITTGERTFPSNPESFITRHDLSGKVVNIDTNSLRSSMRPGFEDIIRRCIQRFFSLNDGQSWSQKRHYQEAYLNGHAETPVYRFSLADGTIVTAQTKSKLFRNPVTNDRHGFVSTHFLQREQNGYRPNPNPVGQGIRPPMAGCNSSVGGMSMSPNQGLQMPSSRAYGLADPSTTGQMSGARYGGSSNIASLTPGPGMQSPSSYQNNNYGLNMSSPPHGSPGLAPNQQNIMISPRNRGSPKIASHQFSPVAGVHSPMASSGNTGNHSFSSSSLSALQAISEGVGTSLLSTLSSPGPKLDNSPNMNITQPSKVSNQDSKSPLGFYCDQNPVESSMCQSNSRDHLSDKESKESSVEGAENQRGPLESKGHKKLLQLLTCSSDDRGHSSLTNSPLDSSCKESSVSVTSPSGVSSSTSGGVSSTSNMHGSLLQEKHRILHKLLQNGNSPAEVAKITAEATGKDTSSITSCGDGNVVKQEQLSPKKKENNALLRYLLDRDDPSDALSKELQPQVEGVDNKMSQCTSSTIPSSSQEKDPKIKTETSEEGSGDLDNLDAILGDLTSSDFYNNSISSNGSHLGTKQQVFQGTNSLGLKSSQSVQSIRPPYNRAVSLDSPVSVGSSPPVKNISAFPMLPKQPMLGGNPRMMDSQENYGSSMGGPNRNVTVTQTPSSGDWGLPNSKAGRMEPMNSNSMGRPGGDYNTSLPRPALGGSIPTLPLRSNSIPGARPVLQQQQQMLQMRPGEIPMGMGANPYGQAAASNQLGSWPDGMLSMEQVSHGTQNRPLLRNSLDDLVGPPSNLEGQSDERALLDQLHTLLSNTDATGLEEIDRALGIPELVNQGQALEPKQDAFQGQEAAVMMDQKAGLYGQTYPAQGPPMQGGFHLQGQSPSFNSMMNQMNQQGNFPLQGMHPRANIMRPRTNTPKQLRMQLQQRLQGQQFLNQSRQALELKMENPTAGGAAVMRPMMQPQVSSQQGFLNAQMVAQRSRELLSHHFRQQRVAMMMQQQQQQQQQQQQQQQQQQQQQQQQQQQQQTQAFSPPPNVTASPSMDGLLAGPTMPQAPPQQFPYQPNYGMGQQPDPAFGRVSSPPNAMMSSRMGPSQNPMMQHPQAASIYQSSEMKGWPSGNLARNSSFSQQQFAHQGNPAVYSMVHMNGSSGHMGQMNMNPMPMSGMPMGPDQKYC
Sequence of Peroxisome proliferator-activated receptor gamma/Nuclear receptor coactivator 1 (P37231 whole entry): as the sequence (P37231 whole entry) above
Sequence of Peroxisome proliferator-activated receptor gamma/Nuclear receptor coactivator 1 (Q15788 whole entry, further chain): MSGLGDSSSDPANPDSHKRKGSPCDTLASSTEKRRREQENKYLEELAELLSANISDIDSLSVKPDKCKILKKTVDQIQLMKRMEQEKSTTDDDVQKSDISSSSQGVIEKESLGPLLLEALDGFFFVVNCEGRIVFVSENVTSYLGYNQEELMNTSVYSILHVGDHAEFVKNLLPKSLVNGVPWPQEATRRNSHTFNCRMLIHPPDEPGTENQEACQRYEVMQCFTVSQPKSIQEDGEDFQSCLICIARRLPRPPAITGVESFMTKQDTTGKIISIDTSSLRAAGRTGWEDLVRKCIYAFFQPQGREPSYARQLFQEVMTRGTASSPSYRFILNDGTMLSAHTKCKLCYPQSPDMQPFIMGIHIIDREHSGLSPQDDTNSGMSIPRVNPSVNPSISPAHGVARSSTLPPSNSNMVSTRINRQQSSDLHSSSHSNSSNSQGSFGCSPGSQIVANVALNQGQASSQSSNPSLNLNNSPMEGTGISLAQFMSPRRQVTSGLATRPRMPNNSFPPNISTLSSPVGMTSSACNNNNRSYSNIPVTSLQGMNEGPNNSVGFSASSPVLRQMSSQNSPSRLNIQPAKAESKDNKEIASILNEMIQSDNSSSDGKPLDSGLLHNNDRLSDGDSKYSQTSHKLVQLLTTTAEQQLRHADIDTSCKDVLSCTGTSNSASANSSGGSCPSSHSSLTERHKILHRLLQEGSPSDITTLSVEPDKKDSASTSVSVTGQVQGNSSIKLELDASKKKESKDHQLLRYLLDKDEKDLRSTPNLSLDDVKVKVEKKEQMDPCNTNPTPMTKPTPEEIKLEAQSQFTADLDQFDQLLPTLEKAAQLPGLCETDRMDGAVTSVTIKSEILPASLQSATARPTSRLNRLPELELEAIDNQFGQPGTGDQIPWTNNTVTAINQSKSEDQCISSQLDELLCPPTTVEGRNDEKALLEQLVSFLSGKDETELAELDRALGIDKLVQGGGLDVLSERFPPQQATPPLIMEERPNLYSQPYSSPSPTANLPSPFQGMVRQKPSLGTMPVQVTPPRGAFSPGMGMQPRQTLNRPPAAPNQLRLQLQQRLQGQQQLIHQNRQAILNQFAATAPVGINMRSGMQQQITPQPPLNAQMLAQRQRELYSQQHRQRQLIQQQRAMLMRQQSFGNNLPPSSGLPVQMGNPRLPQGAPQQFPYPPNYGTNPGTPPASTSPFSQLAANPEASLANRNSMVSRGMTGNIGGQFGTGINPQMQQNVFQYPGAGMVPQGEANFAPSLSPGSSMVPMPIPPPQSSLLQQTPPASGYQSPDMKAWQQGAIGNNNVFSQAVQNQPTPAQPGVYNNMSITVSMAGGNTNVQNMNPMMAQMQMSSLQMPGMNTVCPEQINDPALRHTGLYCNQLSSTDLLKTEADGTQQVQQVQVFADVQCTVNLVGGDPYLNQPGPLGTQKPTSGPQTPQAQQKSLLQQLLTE
Sequence of Neuropeptide Y receptor type 2 (P49146 whole entry): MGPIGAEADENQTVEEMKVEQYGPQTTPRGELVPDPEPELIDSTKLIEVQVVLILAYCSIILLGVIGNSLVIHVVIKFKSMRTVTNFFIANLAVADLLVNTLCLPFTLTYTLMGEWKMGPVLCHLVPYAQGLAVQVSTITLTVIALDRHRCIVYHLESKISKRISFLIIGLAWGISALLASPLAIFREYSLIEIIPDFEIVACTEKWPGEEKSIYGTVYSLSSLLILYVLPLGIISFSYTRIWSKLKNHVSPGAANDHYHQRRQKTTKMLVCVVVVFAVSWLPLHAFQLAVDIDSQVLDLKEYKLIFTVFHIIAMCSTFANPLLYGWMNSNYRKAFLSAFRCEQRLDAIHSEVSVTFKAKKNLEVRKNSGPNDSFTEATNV

CC(=O)OC(C)(C)/C=C/C(=O)C(C)(O)C1[C@H](O)C[C@@]2(C)C3CC=C4C(CC[C@@H](O)C4(C)C)[C@]3(CO)C(=O)C[C@]12C (stereo partly specified)
EC50 [1]: < 0.1 µM (active) | EC50 [2]: 0.083 µM (active) | EC50 (cells): 0.08 µM (active) | EC50 [3]: < 0.1 µM (active) | EC50 [4]: < 0.1 µM (active) | EC50 [5]: 0.33 µM (active) | EC50 [6]: 8.65 µM (active) | EC50 [7]: 0.082 µM (active) | AC50 (Paired box protein Pax-8): < 0.26 µM (active)

O=C(OCn1ncc(Br)c(Br)c1=O)c1ccc(F)cc1
IC50 [8]: 10.3 µM (inactive) | EC50 [1]: > 120 µM (not active) | EC50 (Mu-type opioid receptor): > 32 µM (inactive) | EC50 [9]: > 79.4 µM (inactive) | EC50 [10]: > 32 µM (inactive) | EC50 [3]: 5.79 µM (active) | EC50 [11]: > 79.4 µM (not active) | EC50 [4]: > 120 µM (not active) | IC50 [12]: 5.05 µM (active) | CC50 [13]: 9.1 µM (active) | IC50 [14]: 18.8 µM (active) | EC50 [15]: 72.3 µM (not active) | EC50 (Beta-galactosidase): > 31.5 µM (inactive) | IC50 [16]: 1.66 µM (active) | pIC50 [17]: 5.17 | IC50 [18]: 13.6 µM (not active) | AC50 [19]: 2.02 µM (active) | EC50 (Protein RecA): 0.473 µM (active) | AC50 (INS1): 4.94 µM (active) | CC50 [20]: 8.69 µM (active)

CC(=O)N(C)c1ccc(NC(=O)Nc2ccc(Cl)cc2)cc1
IC50 (NADPH oxidase 1): > 20 µM (not active)

CCCNC(=O)CN(C)CC(=O)c1cc(C)n(Cc2ccccc2)c1C
EC50 [21]: > 30 µM (not active)

COc1cccc(C2C=C(c3ccc(OC)cc3OC)Nc3nnnn32)c1 (stereo unspecified)
EC50 [22]: 9.03 µM (active) | EC50 [23]: 8.72 µM (active)

N#C/C(=N\Nc1ccc(Cl)cc1)C(=O)c1ccccc1
EC50 (HEK293): 7.25 µM (active) | EC50 [24]: 9.92 µM (active) | EC50 [25]: 9.38 µM (active) | IC50 [26]: > 64 µM (inactive) | AC50 (INS1): 3.07 µM (active) | AC50 [27]: 39.2 µM (active) | AC50 [28]: 42 µM (active) | AC50 [29]: 24.5 µM (active)
